Test results from the supplement of paper PMC10307832.

Legend:
Experiment in all cases: relative viability (nuclei count vs DMSO), 5 days (fraction); higher = more cells survive
[1] = compound: C=CCc1cccc(/C=N/NC(=O)CN2CCN(Cc3ccccc3)CC2)c1O [PAC-1]
Procedure, shortened: (§1)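 Lung cancer cell lines in 1536-well plates were kept overnight at 37 °C, then pinned with five library-drug doses (not always all listed) spaced by √10 on vehicle-anchored plates. After 5 days without medium change, cells were fixed, permeabilised and Hoechst-stained in one step, imaged at 4×, and nuclei were counted with MetaXpress. Viability is treated-well nuclei divided by vehicle-well nuclei, taken as the median over plates. Plates passed only with control CV below 25% and at least one doubling.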

[2] = compound: C=CC(=O)N1CCC[C@@H](n2nc(-c3ccc(Oc4ccccc4)cc3)c3c(N)ncnc32)C1 [Ibrutinib]
Procedure, shortened: as §1

[3] = compound: C=CC(=O)Nc1cc(-n2c(=O)ccc3cnc4ccc(-c5ccc(NS(C)(=O)=O)cc5)cc4c32)ccc1C [BMX-IN-1]
Procedure, shortened: as §1

[4] = compound: C=CC(=O)N1CCC[C@@H](n2nc(-c3ccc(Oc4ccccc4)cc3)c3c(N)ncnc32)C1 [Ibrutinib] + CC(=O)Nc1cccc(-n2c(=O)n(C3CC3)c(=O)c3c(Nc4ccc(I)cc4F)n(C)c(=O)c(C)c32)c1 [Trametinib] (partner 0.02 µM)
Procedure, shortened: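 Each reported value is a median over duplicate plates. It expresses relative viability: treated-well nuclei count divided by vehicle-well nuclei count. Lung cancer cell lines in 1536-well plates were dosed by pin tool a day after seeding, alone with one drug or with a fixed anchor-drug dose plus five library-drug doses (not always all listed) in √10 steps, and nuclei were counted after 5 days.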

| Cell Line | relative viability ([1]; 0.02 µM) | relative viability ([1]; 0.06325 µM) | relative viability ([1]; 0.2 µM) | relative viability ([1]; 2 µM) | relative viability ([2]; 0.005 µM) | relative viability ([2]; 0.01581 µM) | relative viability ([2]; 0.05 µM) | relative viability ([2]; 0.1581 µM) | relative viability ([2]; 0.5 µM) | relative viability ([3]; 0.02 µM) | relative viability ([3]; 0.2 µM) | relative viability ([3]; 0.6325 µM) | relative viability ([3]; 2 µM) | relative viability ([4]; first compound 0.005 µM) | relative viability ([4]; first compound 0.01581 µM) | relative viability ([4]; first compound 0.05 µM) | relative viability ([4]; first compound 0.1581 µM) | relative viability ([4]; first compound 0.5 µM) |
| --- | --- | --- | --- | --- | --- | --- | --- | --- | --- | --- | --- | --- | --- | --- | --- | --- | --- | --- |
| COR-L 105 | 0.919 | 0.901 | 0.903 | 0.985 | 0.806 | 0.878 | 0.676 | 0.814 | 0.393 | 1.07 | 0.937 | 1.3 | 0.961 | 0.381 | 0.384 | 0.407 | 0.419 | 0.339 |
| BEN | 0.987 | 0.901 | 0.912 | 1.04 |  | 0.925 | 0.843 | 0.718 | 0.997 | 1.17 | 1.27 | 0.861 | 1.01 | 0.897 |  | 1.06 | 0.974 | 0.794 |
| NCI-H2023 | 0.973 | 0.919 | 0.905 | 1.01 | 0.89 | 0.849 | 0.891 | 1.03 | 0.943 | 1.37 | 1.19 | 1.13 | 1.08 | 0.448 | 0.455 | 0.491 | 0.485 | 0.462 |
| UMC-11 | 1 | 0.969 | 1 | 1.01 | 0.75 | 0.931 | 1.01 | 0.937 | 0.922 | 1.11 | 1.1 | 1.09 | 1.03 | 0.445 | 0.698 | 0.772 | 0.667 | 0.516 |
| NCI-H1755 | 1.02 | 0.958 | 0.963 | 0.995 | 0.988 | 1.03 | 1.02 | 0.994 | 0.969 | 1.01 | 1.1 | 1.08 | 0.984 | 0.761 | 0.796 | 0.796 | 0.793 | 0.746 |
| NCI-H1666 | 1.01 | 1.01 | 1 | 1.04 | 1.03 | 0.984 | 0.851 | 0.965 | 0.867 | 1.05 | 1.06 | 1.11 | 1.1 | 0.809 | 0.849 | 0.832 | 0.938 | 0.744 |
| NCI-H23 | 0.845 | 1.03 | 0.921 | 1.13 | 0.829 | 0.897 | 0.912 | 0.761 | 0.977 | 0.963 | 1.1 | 1.16 | 1.09 | 0.313 | 0.38 | 0.362 | 0.366 | 0.361 |
| COR-L23 | 1.09 | 1 | 0.9 | 1 | 1.09 | 0.967 | 1.03 | 1.03 | 1.18 | 1.35 | 1.16 | 1.17 | 1.07 | 0.393 | 0.574 | 0.621 | 0.647 | 0.756 |
| PC-14 | 1.03 | 1.03 | 0.995 | 0.988 | 1.08 | 0.918 | 0.952 | 1.02 | 0.571 | 1.12 | 1.06 | 1.22 | 1 | 0.735 | 0.647 | 0.643 | 0.818 | 0.254 |
| NCI-H2342 | 1.09 | 0.91 | 0.872 | 1.15 | 0.655 | 0.875 | 0.888 | 0.842 | 0.823 | 1.04 | 1.03 | 1.06 | 0.939 | 0.801 | 0.873 | 0.659 | 0.773 | 0.676 |
| LCLC-97TM1 | 0.897 | 1.16 | 0.807 | 0.937 | 1.11 | 0.888 | 0.906 | 0.85 | 0.909 | 1.04 | 1.11 | 1.12 | 1.02 | 0.192 | 0.172 | 0.202 | 0.192 | 0.155 |
| HOP-62 | 1.05 | 1 | 0.996 | 1.07 | 1.02 | 0.964 | 0.994 | 0.949 | 1.14 | 1.1 | 1.08 | 1.08 | 1.06 | 0.367 | 0.331 | 0.374 | 0.424 | 0.385 |
| NCI-H727 | 0.968 | 1.15 | 0.944 | 0.916 | 0.857 | 0.912 | 0.902 | 0.61 |  | 1 | 1.14 | 0.964 | 0.94 | 0.463 | 0.4 | 0.398 | 0.37 | 0.388 |
| NCI-H1734 | 0.936 | 1.01 | 0.942 | 1.02 | 0.849 | 0.922 | 0.952 | 1.03 | 0.999 | 1.06 | 1.06 | 1.11 | 1.02 | 0.636 | 0.67 | 0.677 | 0.596 | 0.618 |
| NCI-H1651 | 0.978 | 0.967 | 0.943 | 0.983 | 0.931 | 0.93 | 0.913 | 0.923 | 1.03 | 1.11 | 1.08 | 1.07 | 0.991 | 0.858 | 0.807 | 0.765 | 0.776 | 0.773 |
| NCI-H2170 | 1.02 | 0.978 | 0.99 | 0.962 | 0.678 | 0.85 | 0.803 | 0.939 | 0.462 | 1.14 | 1.05 | 1.05 | 1.02 | 0.806 | 0.744 | 0.637 | 0.955 | 0.184 |
| NCI-H1650 | 0.916 | 0.916 | 0.856 | 0.81 | 0.793 | 0.841 | 0.76 | 0.79 | 0.706 | 1 | 0.896 | 1.01 | 0.772 | 0.881 | 0.535 | 0.46 | 0.527 | 0.477 |
| LK-2 | 0.933 | 0.983 | 1 | 1.02 | 0.936 | 0.912 | 0.956 | 0.929 | 0.949 | 1.31 | 1.24 | 0.978 | 1.02 | 0.931 | 0.7 | 0.816 | 0.702 | 0.668 |
